The source of these data is PMC11904993, “Humanized Candida and NanoBiT Assays Expedite Discovery of Bdf1 Bromodomain Inhibitors With Antifungal Potential” (Advanced Science, 2025).

Values joined by “and” are separate entries in the source; they are usually repeats but may differ in a detail not shown here. Identical values can stand only once. *1 amine or outer side, *2 acyl side, *3 side chain or, on linkers, in order; H or OH if unused. Where a SMILES comes first, the peptide text is derived from it. Bridges are numbered along the chain shown (N, C = ends). [ ]: non-standard residue; d: D form. The star is where a group is joined. pTerphenylCO(4''-OnC5H11) = CCCCCOc1ccc(-c2ccc(-c3ccc(C(=O)*)cc3)cc2)cc1; Orn(4R-OH,5R-OH) = O=C([C@H](C[C@@H](O)[C@@H](O)N[*:3])N[*:1])[*:2]; hTyr(3S-OH,4S-OH) = N[C@H](C(=O)O)[C@H](O)[C@@H](O)c1ccc(O)cc1; Pro(3S-OH,4S-Me) = C[C@H]1CN[C@H](C(=O)O)[C@H]1O; Hyp = O=C(O)[C@@H]1C[C@@H](O)CN1

Assay [1] concerns the target CgBdf1 BD1 (Candida glabrata, UniProt Q6FWV7). The experiment in a line: HTRF assay, inhibition of H4ac4 peptide binding. To be noted: Fig 1D/2A original data; single experiments Exp1-3. Also noted: species or system C. glabrata. A general note: Time-resolved FRET reads energy transfer from a long-lived donor to a nearby acceptor.
Assay [2] concerns the target CgBdf1 BD2 (Candida glabrata, UniProt Q6FWV7). The experiment in a line: biochemical. The assay is classed as binding, C. glabrata. The note with it: Fig 1D/2A original data; single experiments Exp1-3.
For assay [3], the system named is C. glabrata strains (WT, pdr1∆ or PDR1 rescue). The assay can be described thus: Growth assays to assess compound efflux. The note with it: for growth relative to Solvent = 100 (Figure S10B): compound 50 µM, three replicates. It is filed as cell-based. The protocol: Cells from a single colony were diluted in 0.85% NaCl before being counted using a Neubauer chamber. […] The effect of fluconazole was tested by titration on these strains under similar conditions.

In assay [4] the test system is C. glabrata strains expressing WT and mutant Bdf1. The assay can be described thus: Growth inhibition in liquid media, C. glabrata lab strains. The note with it: Exp 1-3; for %Growth: 50 µM, WT BDF1-flag; for OD at 600 nm: Figure S4B.
Method: (§2) Growth on Liquid Media with C. glabrata Lab Strains: Cells were grown at 30 °C in SC+M+C‐U medium (SC medium with 5 mM methionine, 0.25 mM cysteine, without uracil) to an OD600 of 0.5–0.8. […] Plates were incubated at 30 °C and OD600 was measured using a Multiskan FC Microplate Photometer (Thermo Fisher).
For assay [5], the system named is C. glabrata expressing humanized Bdf1 (Brd4 BDs). The experiment in a line: Growth inhibition in liquid media, humanized C. glabrata strains. The note with it: 50 µM, Exp 1-3.
Method: as §2
The test system of assay [6] is C. albicans expressing WT Bdf1. The assay can be described thus: Galleria fungal infection model, WT strain. To be noted: Figure 6B. The arrangement: key to survival event of one larva (1 = death 0 = no death): 1 = death; 0 = no death. It is filed as in vivo, Galleria mellonella. The protocol: (§1) Galleria mellonella larvae were purchased from Decathlon (La Tronche, France). They were selected in the late larval stages weighing between 300 and 400 mg. Groups of 10 larvae were injected into the right or left last pro‐leg with 10 µl of either PBS, C. albicans suspensions or antifungal drug using an insulin syringe (BDUltra‐Fine 0.3 ml). C. albicans suspensions of the WT and humanized Bdf1 strains were adjusted to 10^6 cells larva^−1. Antifungal drugs (anidulafungin 5 mg kg^−1 or I‐BET726 66 or 44 mg kg^−1) were injected once 30 min before fungal infection. An infected control group received the C. albicans inoculum and the solvent of the drug. A non‐infected control group received only PBS. After inoculation, larvae were placed in Petri dishes and incubated in the dark at 37 °C. The larvae were monitored for 5 days, and survival outcome was determined. For experiments performed at the lower (44 mg kg^−1) dose of IBET‐726, the difference in protection against infection with humanized versus WT C. albicans strains was more evident using the survival data at 40 h rather than at 100 h post‐infection. Larvae were considered dead when no response was observed following touch. All experiments were performed at least 3 times independently. The significance of survival was assessed by a Log‐rank (Mantel‐Cox) test in GraphPad Prism 10.

The subject of assay [7] is C. albicans expressing humanized Bdf1. The experiment in a line: Galleria fungal infection model, humanized strain. The assay is classed as in vivo, Galleria mellonella. Also noted: key to survival event of one larva (1 = death 0 = no death): 1 = death; 0 = no death. To be noted: Figure 6C; Bdf1-hBD* strain; Time 8 hours. The protocol:
as §1

Assay [8] addresses S. cerevisiae histone H2A variant H2A.Z fused to LgBiT (UniProt Q12692). The experiment in a line: NanoBiT assay in live S. cerevisiae cells. The note with it: parent: est. 1.0; read off a plot.

CgBdf1 BD1, sequence (Q6FWV7 entry or part of it): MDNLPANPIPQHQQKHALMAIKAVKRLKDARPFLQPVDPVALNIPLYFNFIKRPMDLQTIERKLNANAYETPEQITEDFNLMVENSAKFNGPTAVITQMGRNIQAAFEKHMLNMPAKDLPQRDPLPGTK
CgBdf1 BD2, sequence (Q6FWV7 entry or part of it): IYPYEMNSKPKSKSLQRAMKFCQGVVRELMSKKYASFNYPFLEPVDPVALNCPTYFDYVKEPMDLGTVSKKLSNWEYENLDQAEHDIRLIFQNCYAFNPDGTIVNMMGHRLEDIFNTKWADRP

On to `Cc1sc2c(c1C)C(c1ccc(Cl)cc1)=N[C@@H](CC(=O)OC(C)(C)C)c1nnc(C)n1-2` [JQ1, reference compound], for which the “pIC50 CgBD1” value in assay [1] was 5.18 and 5.05 and 5.03. Further, the “pIC50 CgBD2” value in assay [2] was 6.15 and 6.10 and 6.13. For the same molecule, the “activity against PDR1 deletion strain versus WT/rescue” value in assay [3] (50 µM (I-BET726 1 µM), 20 h) was “increased efficacy”. For the same molecule, the “%Growth” value is 112.7% and 106.1% and 114.4% in assay [4] (Fig 3D); 113% and 106% and 114% in assay [4] (Fig 3E); 46.0% and 39.6% and 43.2% in assay [5] (Fig 3D, humanized BDF1-flag); 83% and 74% and 78% in assay [5] (Fig 3E, BDF1-hBD1-flag); 91% and 86% in assay [5] (Fig 3E, BDF1-hBD2-flag); 46% and 40% and 43% in assay [5] (Fig 3E, humanized BDF1-flag). For the same molecule, the “OD at 600 nm” value in assay [4] (WT BDF1 strain) was 0.392 and 0.386 and 0.385; in assay [4] (bdf1-bd1Δ strain), 0.328 and 0.347 and 0.329; in assay [4] (bdf1-bd2Δ strain), 0.195 and 0.225 and 0.183.
In the case of `COc1cc(OC)c2c(=O)[nH]c(-c3cc(C)c(OCCO)c(C)c3)nc2c1` [RVX208], the “growth relative to Solvent = 100 (Figure S10B)” value in assay [3] (PDR1 Rescue) is 70.1855 and 71.3614 and 82.784; in assay [3] (WT), 80.2726 and 64.9447 and 62.8512; in assay [3] (pdr1∆), 66.409 and 64.9859 and 67.3918. Further, the “%Growth” value in assay [4] (Fig 3E) is 91% and 96%; in assay [5] (Fig 3E, BDF1-hBD1-flag), 95% and 91% and 88%; in assay [5] (Fig 3E, BDF1-hBD2-flag) it was 94% and 82% and 93%; in assay [5] (Fig 3E, humanized BDF1-flag), 80% and 88% and 77%.
`CCCCCOc1ccc(-c2ccc(-c3ccc(C(=O)N[C@H]4C[C@@H](O)[C@@H](O)NC(=O)[C@@H]5[C@@H](O)[C@@H](C)CN5C(=O)[C@H]([C@@H](C)O)NC(=O)[C@H]([C@H](O)[C@@H](O)c5ccc(O)cc5)NC(=O)[C@@H]5C[C@@H](O)CN5C(=O)[C@H]([C@@H](C)O)NC4=O)cc3)cc2)cc1` [anidula-fungin] ({pTerphenylCO(4''-OnC5H11)}-[Orn(4R-OH,5R-OH)]T[Hyp][hTyr(3S-OH,4S-OH)]T[Pro(3S-OH,4S-Me)]; lactam 1-C): the “survival event of one larva (1 = death 0 = no death)” value in assay [6] (Time 10 hours), in assay [6] (Time 35 hours) and in assay [6] (Time 50 hours) was 1 in each case.
Consider `CCCCCOc1ccc(-c2ccc(-c3ccc(C(=O)N[C@H]4C[C@@H](O)[C@@H](O)NC(=O)[C@@H]5[C@@H](O)[C@@H](C)CN5C(=O)[C@H]([C@@H](C)O)NC(=O)[C@H]([C@H](O)[C@@H](O)c5ccc(O)cc5)NC(=O)[C@@H]5C[C@@H](O)CN5C(=O)[C@H]([C@@H](C)O)NC4=O)cc3)cc2)cc1` [anidulafungin] ({pTerphenylCO(4''-OnC5H11)}-[Orn(4R-OH,5R-OH)]T[Hyp][hTyr(3S-OH,4S-OH)]T[Pro(3S-OH,4S-Me)]; lactam 1-C), for which the “survival event of one larva (1 = death 0 = no death)” value in assay [7] turned out to be 1.
With “C. glabrata Bdf1-SmBiT expressed in S. cerevisiae Y166F; Y343F”, in assay [8], the ratio to parent stood at 0.27.
